Results as given in patent publication US11447498B2, “Fused tetracyclic compounds and uses thereof in medicine” (SUNSHINE LAKE PHARMA CO., LTD., priority 2018, dated 2022).

How the values were obtained:
HBV DNA replication = experiment: Inhibition experiment on HBV virus replication (HepG 2,2,15 cells, supernatant HBV DNA by qPCR); type: cell-based; conditions: Hepatitis B virus, HepG2.2.15, 10 days treatment, supernatant HBV DNA on day 11
Text: (§1) The chromosomal integration of HepG2,2,15 cells (SELLS, PNAS, 1987 and SELLS, JV, 1988) has a complete HBV genome and stably expresses viral RNA and viral proteins. HepG2,2,15 cells are capable of secreting mature hepatitis B virus particles and HBsAg into the culture medium. Virus particles DNA and HBsAg secreted by HepG 2,2,15 cells can be quantified by qPCR and ELISA, and the effects of compounds on viral replication and HBsAg secretion can be detected.
(§2) HepG 2,2,15 cells were inoculated with 8,000 per cell to 96-well cell culture plates in duplicate, and were cultured for 3 days until the cells grew to full-hole. Cells were treated with 4-fold serial dilutions of compounds for 10 days, and were given once every other day. The final concentration of DMSO in all pores was 0.5% and DMSO was used as a drug-free control. The supernatant was collected for quantitative detection of HBV DNA on day 11.
Viral genomic DNA was detected by qPCR method, and HBV primers were as follows: […]
The SYBR Premix Ex Taq D-Takara DRR081S kit was used, and 1 μL of cell culture supernatant was used as a template. A standard curve was made using a plasmid containing the HBV genome, and the viral copy number was calculated using the standard curve. Concentration-virus copy number was processed using Graphpad Prism 5 software, and IC50 of compounds inhibiting virus replication was calculated by four-parameter nonlinear regression model.

HBsAg secretion = experiment: Inhibition experiment on HBsAg secretion (HepG 2,2,15 cells, ELISA); type: cell-based; conditions: Hepatitis B virus, HepG2.2.15, read-out: HBsAg IC50
Text: as §1
as §2, with “HBsAg” for “HBV DNA”
The level of HBsAg secreted by the cells after treatment of the compound was detected by ELISA method, and the method used a hepatitis B surface antigen diagnostic kit (Shanghai Kehua Biotech Co., Ltd. S10910113). 25 μL of the supernatant to be assayed (PBS was diluted to 75 μL) was added to per well in the ELISA plate, and the kit positive control and negative control were set. The ELIS A plate was blocked with a cover paper and incubated at 37° C. for 60 minutes. The ELISA plate was taken out, and the cover paper was teared off, and 50 μL of enzyme conjugate was added to each well. The ELISA plate was oscillated on the shaker for 10 seconds, blocked with a cover paper and incubated at 37° C. for 30 minutes. The ELISA plate was taken out, the cover paper was teared off, and the ELISA plate was washed 5 times: each time the liquid in the hole was discarded, and the washing liquid was filled into the holes, left to stand for 60 seconds, dried, and the liquid residue was patted to dry on the absorbent paper. A freshly prepared mixture of Developer A and Developer B was added to all wells immediately after washing: 100 μL per well. The ELISA plate was oscillated on the shaker for 10 seconds, blocked with a cover paper and incubated at 37° C. for 30 minutes. 50 μL of stop solution was added to all wells. Absorbance was read on the Envision plate reader at a wavelength of 450 nm.
Concentration-HBsAg OD450 was processed using Graphpad Prism 5 software, and IC50 of compounds inhibiting against HBsAg secretion was calculated by four-parameter nonlinear regression model.

SMILES | IC50 (HBV DNA replication) | IC50 (HBsAg secretion)
CC(C)C1Cc2cc(-c3ccco3)c3c(c2-c2cc(=O)c(C(=O)O)cn21)CCO3 (centres unmarked) [Example 1, 4-(Furan-2-yl)-7-isopropyl-11-oxo-2,6,7,11-tetrahydro-1H-furo[2,3-h]pyrido[2,1-a]isoquinoline-10-carboxylic Acid] | 2.36 nM | 4.21 nM
CC(C)[C@@H]1Cc2cc(OCCC3CC3)c3c(c2-c2cc(=O)c(C(=O)O)cn21)CCO3 [Example 3A, (S)-4-(2-Cyclopropylethoxy)-7-isopropyl-11-oxo-2,6,7,11-tetrahydro-1H-furo [2,3-h]pyrido[2,1-a]isoquinoline-10-carboxylic Acid] |  | 0.76 nM
CC(C)C1Cc2cc(OCCOC3CC3)c3c(c2-c2cc(=O)c(C(=O)O)cn21)CCO3 (centres unmarked) [Example 4, 4-(2-Cyclopropoxyethoxy)-7-isopropyl-11-oxo-2,6,7,11-tetrahydro-1H-furo [2,3-h]pyrido[2,1-a]isoquinoline-10-carboxylic Acid] | 3.84 nM | 
CC(C)C1Cc2cc(OCC3CCOCC3)c3c(c2-c2cc(=O)c(C(=O)O)cn21)CCO3 (centres unmarked) [Example 5, 7-Isopropyl-11-oxo-4-((tetrahydro-2H-pyran-4-yl)methoxy)-2,6,7,11-tetrahydro-1H-furo[2,3-h]pyrido[2,1-a]isoquinoline-10-carboxylic Acid] | 3.4 nM | 2.35 nM
CC(C)C1Cc2cc(OCCc3ccccc3)c3c(c2-c2cc(=O)c(C(=O)O)cn21)CCO3 (centres unmarked) [Example 6, 7-Isopropyl-11-oxo-4-phenylethoxy-2,6,7,11-tetrahydro-1H-furo[2,3-h]pyrido [2,1-a]isoquinoline-10-carboxylic Acid] | 0.86 nM | 1.92 nM
CC(C)C1Cc2cc(OCCC(F)(F)F)c3c(c2-c2cc(=O)c(C(=O)O)cn21)CCO3 (centres unmarked) [Example 7, 7-Isopropyl-11-oxo-4-(3,3,3-trifluoropropoxy)-2,6,7,11-tetrahydro-1H-furo [2,3-h]pyrido[2,1-a]isoquinoline-10-carboxylic Acid] | 1.87 nM | 
CC(C)C1Cc2cc(-c3nccs3)c3c(c2-c2cc(=O)c(C(=O)O)cn21)CCO3 (centres unmarked) [Example 8, 7-isopropyl-11-oxo-4-(thiazol-2-yl)-2,6,7,11-tetrahydro-1H-furo[2,3-h]pyrido [2,1-a]isoquinoline-10-carboxylic Acid] | 0.52 nM | 1.63 nM
CC(C)C1Cc2cc(-c3cnn(C(F)F)c3)c3c(c2-c2cc(=O)c(C(=O)O)cn21)CCO3 (centres unmarked) [Example 10, 4-(l (Difluoromethyl)-1H-pyrazol-4-yl)-7-isopropyl-11-oxo-2,6,7,11-tetrahydro-1H-furo[2,3-h]pyrido[2,1-a]isoquinoline-10-carboxylic Acid] | 0.98 nM | 2.34 nM
CC(C)[C@@H]1Cc2cc(-c3cnn(C(F)F)c3)c3c(c2-c2cc(=O)c(C(=O)O)cn21)CCO3 [Example 10A, 4-(1-(Difluoromethyl)-1H-pyrazol-4-yl)-7-isopropyl-11-oxo-2,6,7,11-tetrahydro-1H-furo[2,3-h]pyrido[2,1-a]isoquinoline-10-carboxylic Acid] |  | 0.54 nM
CC(C)C1Cc2cc(-c3cccs3)c3c(c2-c2cc(=O)c(C(=O)O)cn21)CCO3 (centres unmarked) [Example 11, 7-Isopropyl-11-oxo-4-(thiophen-2-yl)-2,6,7,11-tetrahydro-1H-furo[2,3-h]pyrido[2,1-a]isoquinoline-10-carboxylic Acid] | 0.78 nM | 0.92 nM
COCCCOc1cc2c(c3c1OCC3)-c1cc(=O)c(C(=O)O)cn1N1C2CCC1(C)C (centres unmarked) [Example 12, 5-(3-Methoxypropoxy)-1,1-dimethyl-10-oxo-2,3,3a,7,8,10-hexahydro-1H-furo [3,2-f]pyrido[1,2-c]pyrrolo[2,1-a]phthalazine-11-carboxylic Acid] | < 0.24 nM | 0.81 nM
CC(C)n1cc(-c2cc3c(c4c2OCC4)-c2cc(=O)c(C(=O)O)cn2N2C3CCC2(C)C)cn1 (centres unmarked) [Example 14, 5-(1-Isopropyl-1H-pyrazol-4-yl)-1,1-dimethyl-10-oxo-2,3,3a,7,8,10-hexahydro-1H-furo[3,2-f]pyrido[1,2-c]pyrrolo[2,1-a]phthalazine-11-carboxylic Acid] | < 0.24 nM | 0.38 nM
COCCCOc1cc2c(c3c1OCC3)-c1cc(=O)c(C(=O)O)cn1N(C(C)C)C2 [Example 16, 7-Isopropyl-4-(3-methoxypropoxy)-11-oxo-2,6,7,11-tetrahydro-1H-furo[2,3-h]pyrido[2,1-a]phthalazine-10-carboxylic Acid] | 2.49 nM | 
CC(C)CCOc1cc2c(c3c1OCC3)-c1cc(=O)c(C(=O)O)cn1C(C(C)C)C2 (centres unmarked) [Example 21, 4-(Isopentyloxy)-7-isopropyl-11-oxo-2,6,7,11-tetrahydro-1H-furo[2,3-h]pyrido [2,1-a]isoquinoline-10-carboxylic Acid] |  | 1.55 nM
CC(C)C1Cc2cc(OCC3CCCC3)c3c(c2-c2cc(=O)c(C(=O)O)cn21)CCO3 (centres unmarked) [Example 22, 4-(Cyclopentylmethoxy)-7-isopropyl-11-oxo-2,6,7,11-tetrahydro-1H-furo[2,3-h]pyrido[2,1-a]isoquinoline-10-carboxylic Acid] | 2.26 nM | 
CC(C)C1Cc2cc(OCC3CC3)c3c(c2-c2cc(=O)c(C(=O)O)cn21)CCO3 (centres unmarked) [Example 23, 4-(Cyclopropylmethoxy)-7-isopropyl-11-oxo-2,6,7,11-tetrahydro-11-furo [2,3-h]pyrido[2,1-a]isoquinoline-10-carboxylic Acid] | 3.36 nM | 1.14 nM
CC(C)C1Cc2cc(-c3ccc(-c4ccccc4)cc3)c3c(c2-c2cc(=O)c(C(=O)O)cn21)CCO3 (centres unmarked) [Example 25, 4-([1,1′-Biphenyl]-4-yl)-7-isopropyl-11-oxo-2,6,7,11-tetrahydro-1H-furo[2,3-h]pyrido[2,1-a]isoquinoline-10-carboxylic Acid] | 0.72 nM | 1.4 nM
COc1ccc(-c2cc3c(c4c2OCC4)-c2cc(=O)c(C(=O)O)cn2C(C(C)C)C3)cc1 (centres unmarked) [Example 26, 7-Isopropyl-4-(4-methoxyphenyl)-11-oxo-2,6,7,11-tetrahydro-1H-furo[2,3-h]pyrido[2,1-a]isoquinoline-10-carboxylic Acid] | 1.09 nM | 1.33 nM
COc1cccc(-c2cc3c(c4c2OCC4)-c2cc(=O)c(C(=O)O)cn2C(C(C)C)C3)c1 (centres unmarked) [Example 27, 7-Isopropyl-4-(3-methoxyphenyl)-11-oxo-2,6,7,11-tetrahydro-1H-furo[2,3-h]pyrido[2,1-a]isoquinoline-10-carboxylic Acid] | 2.54 nM | 4.65 nM
CC(C)C1Cc2cc(-c3ccncc3)c3c(c2-c2cc(=O)c(C(=O)O)cn21)CCO3 (centres unmarked) [Example 29, 7-Isopropyl-11-oxo-4-(pyridine-4-yl)-2,6,7,11-tetrahydro-1H-furo[2,3-h]pyrido [2,1-a]isoquinoline-10-carboxylic Acid] | 0.97 nM | 2.64 nM
CC(C)C1Cc2cc(-c3cncnc3)c3c(c2-c2cc(=O)c(C(=O)O)cn21)CCO3 (centres unmarked) [Example 30, 7-Isopropyl-11-oxo-4-(pyrimidin-5-yl)-2,6,7,11-tetrahydro-1H-furo[2,3-h]pyrido[2,1-a]isoquinoline-10-carboxylic Acid] | 1.95 nM | 5.3 nM
CC(C)C1Cc2cc(C#CC3CC3)c3c(c2-c2cc(=O)c(C(=O)O)cn21)CCO3 (centres unmarked) [Example 31, 4-(Cyclopropylethynyl)-7-isopropyl-11-oxo-2,6,7,11-tetrahydro-1H-furo [2,3-h]pyrido[2,1-a]isoquinoline-10-carboxylic Acid] | 0.72 nM | 1.39 nM
O=C(O)c1cn2c(cc1=O)-c1c(cc(OCCC3CC3)c3c1CCO3)CN2c1nccs1 [Example 47, 4-(2-Cyclopropylethoxy)-11-oxo-7-(thiazol-2-yl)-2,6,7,11-tetrahydro-1H-furo [2,3-h]pyrido[2,1-a]phthalazine-10-carboxylic Acid] | 3.31 nM | 
